Experimental data as given in US20120322890A1, “Inhibition of the Survival of Bone Cancer by Cyclohexenone Compounds from Antrodia Camphorata” (Golden Biotechnology Corporation, priority 2009, published 2012).

System: bone cancer cell line MG-63
Test: In vitro survival assay (MTT) for inhibition of bone cancer cells
Format: cell-based
Settings: Homo sapiens, MG-63 cells, 48 hours treatment, absorbance at 570 nm, read-out: IC50 (half inhibition concentration), survival of bone cancer cells
Description: Inhibiting effects of bone cancer cells by cyclohexenone compounds of Antrodia camphorata from example 1 were assessed according to the anticancer-drug screening model of National Cancer Institute (NCI). The compound 4-hydroxy-2,3-dimethoxy-6-methyl-5-(3,7,11-trimethyl-dodeca-2,6,10-trienyl)-cyclohex-2-enone from example 1 was added into the culture media of bone cancer cell line MG-63 to determine the survival rates. Survival of cell was analyzed using MTT assay. MG-63 cell line was an osteoblast-like fibroblast cell line and derived from human osteosarcoma, which had similar cell type and feature with osteoblast.
MTT assay is commonly used to analyze cell proliferation, survival rate of viable cells and cytotoxicity. MTT (3[4,5-dimethylthiazol-2-yl]-2,5-diphenyltetrazolium bromide) is a yellow dye which can be converted to water-insoluble purple formazan on the reductive cleavage of its tetrazolium ring by the succinate tetrazolium reductase in mitochondria of cells. The amount of formazan produced is used to detect the number of viable cells and calculate the survival rates.
The MG-63 cells were cultivated in Dulbecco's modified Eagle's medium (DMEM) supplemented with 10% fetal bovine serum, 100 IU/ml of Penicillin and […] of Streptomycin at 37° C., 5% CO2 for 24 hours. […] The absorbances were measured at 570 nm with an ELISA Reader to determine the survival rates.

Work on `COC1=C(OC)C(O)C(C/C=C(\C)CC/C=C(\C)CCC=C(C)C)C(C)C1=O` (stereo not shown) [formula 2, 4-hydroxy-2,3-dimethoxy-6-methyl-5-(3,7,11-trimethyl-dodeca-2,6,10-trienyl)-cyclohex-2-enone] yielded an IC50 of 2.09 µg/mL.
